Assay results published in publication PMC7735563, “5,5-Dialkylluciferins are thermal stable substrates for bioluminescence-based detection systems” (PLoS ONE, 2020).

These molecules were tested on T1, Ultra-Glo™ luciferase (assay: luminescence, Michaelis-Menten). Conditions: 1 mM ATP, Bright-Glo buffer, 25 °C.
T1 construct: gene Firefly luciferase; HisLink purified; starting enzyme also obtained from Promega
Format: biochemical
Source text: luminescence, Michaelis-Menten on Ultra-Glo™ luciferase
For O=C(O)[C@H]1CSC(c2nc3ccc(O)cc3s2)=N1 [LH2, D-luciferin], the Km was 0.49 µM.
In the case of O=C(O)C1N=C(c2nc3ccc(O)cc3s2)SC12CC2 (racemic) [III-b, 5-(6-Hydroxybenzo[d]thiazol-2-yl)-4-thia-6-azaspiro[2.4]hept-5-ene-7-carboxylic acid], the Km is reported as 1.71 µM.
CC1(C)SC(c2nc3ccc(O)cc3s2)=NC1C(=O)O (racemic) [III-a, 2-(6-Hydroxybenzo[d]thiazol-2-yl)-5,5-dimethyl-4,5-dihydrothiazole-4-carboxylic acid] showed a Km of 7.47 µM.
